In PubChem BioAssay (NCI) one finds GI50 and TGI data, which are given here for three compounds.

Some test systems named below: DU-145 prostate; LXFL 529 NSCLC; MOLT-4 leukemia; UACC-62 melanoma; M14 melanoma; OVCAR-4 ovarian; K-562 leukemia; DMS 273 small cell lung; KM12 colon; CAKI-1 renal.
Holding throughout (assay): DTP human tumour cell line panel, 48 h

Values joined by “and” are separate entries in the source; they are usually repeats but may differ in a detail not shown here. Equal entries are not always repeated.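 Where inhibition never reached the appropriate level, the endpoint shown equals the highest concentration tested. Otherwise, values were interpolated linearly from a five-concentration, 48-hour dose response in 96-well plates. GI50 is the concentration that inhibits growth by half. At the TGI there is no net growth.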

As for `COc1ccc2[nH]c3c(C)c4cc[n+](C)cc4c(C)c3c2c1`, the GI50 is 2.1 µM and 0.44 µM and 0.691 µM with DU-145 prostate; 0.383 µM in the assay with LXFL 529 NSCLC; 653 nM [middle of 4 runs] with MOLT-4 leukemia; 1.28 µM and 7.39 µM with UACC-62 melanoma; 16.1 µM and 12.9 µM and 2.33 µM in the assay on M14 melanoma; 2.18 µM with OVCAR-4 ovarian. Also, the GI50 in the assay on K-562 leukemia is 2 µM [middle of 4 runs]; in the assay on DMS 273 small cell lung it was 0.502 µM and 0.189 µM; in the assay with KM12 colon, 0.34 µM and 0.817 µM. For the same compound, the TGI was 37.7 µM and 5.13 µM in the assay with DU-145 prostate; 3.41 µM in the assay on LXFL 529 NSCLC; 85.3 µM and 29.8 µM with M14 melanoma; 15.9 µM [middle of 4 runs] in the assay with OVCAR-4 ovarian.
For `S=c1nc[nH]c2nc[nH]c12`, the GI50 in the assay with DU-145 prostate was 0.825 µM and 3.96 µM; in the assay with MOLT-4 leukemia, 2.34 µM and 13.2 µM; with M14 melanoma, 0.418 µM and 3.92 µM; with OVCAR-4 ovarian it was 70.8 µM and 61.2 µM; with K-562 leukemia it was 3.34 µM. Moreover, the TGI with DU-145 prostate is > 750 µM; in the assay on LXFL 529 NSCLC, > 720 µM; with MOLT-4 leukemia, 26.8 µM and 245 µM and 31.6 µM; with UACC-62 melanoma it was > 100 µM and 512 µM and > 750 µM; in the assay on OVCAR-4 ovarian, > 100 µM and 618 µM and > 750 µM; in the assay with K-562 leukemia, 446 µM and 251 µM. For the same compound, the TGI is 565 µM in the assay with DMS 273 small cell lung; > 100 µM and 436 µM and > 750 µM in the assay with CAKI-1 renal; > 100 µM and 716 µM and > 707 µM in the assay with KM12 colon.
Regarding `NC1=NN(c2ccccc2)C(=O)C1/C(=N\NC(=O)c1cc2ccccc2cc1O)C(=O)Nc1nc([N+](=O)[O-])cs1` (stereo unspecified), the TGI is > 100 µM in the assay on LXFL 529 NSCLC; 58.8 µM in the assay on MOLT-4 leukemia; 56.6 µM with UACC-62 melanoma; > 95.5 µM in the assay on M14 melanoma; > 100 µM with OVCAR-4 ovarian; 42.2 µM with K-562 leukemia. Further, the values for the TGI in the assay with DMS 273 small cell lung, in the assay on CAKI-1 renal and with KM12 colon were > 73.6 µM, 99 µM and > 80 µM, respectively.

As a reminder, the GI50 is the concentration giving 50% growth inhibition. As a reminder, the TGI is the concentration at which net growth stops. Lower therefore signals greater sensitivity of the cells.
